{
  "source": "patent US20250198442A1",
  "about": "“GAMMA POLYGLUTAMATED PEMETREXED AND USES THEREOF” (L.E.A.F. HOLDINGS GROUP LLC, priority 2020, published 2025)",
  "key": {"[1]": {"system": "NCI H2342 non-small cell lung cancer (NSCLC), adenocarcinoma subtype", "assay": "CellTiter-Glo cell viability dose response, NCI H2342", "type": "cell-based, human", "conditions": "H2342, 48 hours of treatment, rank among test articles", "procedure": "(§1) The CTG assay uses luciferase as a readout.\n(§2) Luciferase luminescence were recorded for each well."}, "[2]": {"system": "HT-29 (colon cancer)", "assay": "CellTiter-Glo cell viability dose response, HT-29", "type": "cell-based, human", "conditions": "HT-29, 48 hours, rank among test articles", "procedure": "as §1, §2"}, "[3]": {"system": "AML12 liver cells", "assay": "Toxicity to AML12 liver cells", "type": "cell-based", "conditions": "all doses studied (16 to 128 nM), 48 hours", "text": "(§3) Methodologies used for cell line AML12 (non-cancerous liver cells) and CCD841 (non-cancerous colon epithelial cells) are similar to the methods used for cancer cells."}, "[4]": {"system": "CCD841 colon epithelium cells", "assay": "Toxicity to CCD841 colon epithelium cells", "type": "cell-based", "conditions": "16 nM, 32 nM, 64 nM and 128 nM, 48 hours", "text": "as §3"}},
  "data": [
    {"compound": "Nc1nc(=O)c2c(CCc3ccc(C(=O)N[C@@H](CCC(=O)N[C@@H](CCC(=O)N[C@@H](CCC(=O)N[C@@H](CCC(=O)N[C@@H](CCC(=O)N[C@@H](CCC(=O)O)C(=O)O)C(=O)O)C(=O)O)C(=O)O)C(=O)O)C(=O)O)cc3)c[nH]c2[nH]1", "note": "[gG6, pemetrexed L-gamma hexaglutamate]", "values": [
      {"measurement": "potency as measured by IC50", "setting": "[1]", "result": "least potent"},
      {"measurement": "potency (cell viability)", "setting": "[2]", "result": "least potent"}
    ]},
    {"compound": "Nc1nc2[nH]cc(CCc3ccc(C(=O)N[C@@H](CCC(=O)O)C(=O)O)cc3)c2c(=O)[nH]1", "note": "[pemetrexed]", "values": [
      {"measurement": "reduction in the AML12 liver cell counts", "setting": "[3]", "result": "approximately 40%"},
      {"measurement": "decrease in the number of CCD841 colon epithelium cells", "setting": "[4]", "result": "≥ 50", "unit": "%"}
    ]}
  ]
}
